According to patent US20100120708A1, “Combination therapy comprising ZD6474 and gemcitabine for anti-cancer therapy” (priority 2002, published 2010):
“And” between values parts separate entries of the source, which are not always exact repeats. Equal values may be shown once. Where a name gives a salt, the structure may show the parent alone.

Tested on: L 3.6 μl human pancreatic cancer cells
Experiment: Effects of ZD6474 and gemcitabine therapy on primary pancreatic tumour growth and metastases growing orthotopically in nude mice
Assay type: in vivo
Conditions: sacrificed day 32, ZD6474 50 mg/kg oral daily, gemcitabine 100 mg/kg i.p. twice weekly; for Incidence Pancreas (incidence of pancreatic tumours): orthotopic injection into pancreas, treatment from 8 days post-tumour injection; for Incidence Pancreas (incidence of pancreatic tumours) / LN Met (incidence of lymph node metastases) / Liver Met (incidence of liver metastases) / Peritoneal Carcinosis (incidence): animals affected/animals in group; for LN Met (incidence of lymph node metastases) / Liver Met (incidence of liver metastases) / Peritoneal Carcinosis (incidence): orthotopic; for Tumour Weight Average +/− std dev: primary pancreatic tumour weight, control 1231 mg; for Body Weight Average +/− std dev: control 21.4 g
Experimental: Model to Investigate Effects of ZD6474 and Gemcitabine Therapy on Primary Pancreatic Tumour Growth and Metastases Growing Orthotopically in Nude Mice
Nude mice (n=10 per group) were injected with 1×10^6 […] human pancreatic cancer cells into the pancreas. The mice received one of the following treatment regimes 8 days post-tumour injection:
Group 1—control group received saline by daily oral application; Group 2—a single daily dose of ZD6474 (50 mg/kg oral gavage); Group 3—gemcitabine twice weekly (on days 2 and 5 of each treatment week) (100 mg/kg by intraperitoneal injection (i.p.)); Group 4—a single daily dose of ZD6474 (50 mg/kg oral gavage) and twice weekly gemcitabine (on days 2 and 5 of each treatment week) (GEM: 100 mg/kg i.p.).
The animals were sacrificed 32 days after tumour cell injection.
The incidence of pancreatic tumours, liver metastases, lymph node metastases and peritoneal carcinosis was evaluated. The primary pancreatic tumour weight was measured. All macroscopically enlarged lymph nodes and liver nodules were confirmed by histopathology (H&E staining).

SMILES	Incidence Pancreas (incidence of pancreatic tumours)	LN Met (incidence of lymph node metastases)	Liver Met (incidence of liver metastases)	Peritoneal Carcinosis (incidence)	Tumour Weight Average +/− std dev	Tumour Weight Average +/− std dev (listed as gemcitabine) [mg]	Body Weight Average +/− std dev [g]
Nc1ccn([C@@H]2O[C@H](CO)[C@@H](O)C2(F)F)c(=O)n1 [Gemcitabine, 2′-deoxy-2′,2′-difluorocytidine monohydrochloride (β-isomer)]	9/9	9/9	4/9	3/9	836 ± 291 mg	836	21.7 ± 2.1
COc1cc2c(Nc3ccc(Br)cc3F)ncnc2cc1OCC1CCN(C)CC1 [ZD6474, 4-(4-bromo-2-fluoroanilino)-6-methoxy-7-(1-methylpiperidin-4-ylmethoxy)quinazoline]	10/10	3/10	1/10	1/10	541 mg and 541 ± 201 mg		19.2 ± 2.9
